These results are taken from PubChem BioAssay (NCI).

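96-well plates; 48 h exposure; 5 concentrations. Endpoints by linear interpolation between flanking doses. Not reached: highest tested concentration assigned. GI50 = concentration required for 50% inhibition of growth. The concentration for full growth arrest is given as TGI.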

One assay deals with MALME-3M melanoma. Put plainly: DTP human tumour cell line panel, 48 h.
The term TGI denotes the concentration giving total growth inhibition. Higher therefore signals lower sensitivity of the cells. `O=C(CC(=O)Nc1ccccc1)NNC(c1cc(N=Nc2ccc(Br)cc2)ccc1O)P(O)O` (stereo not given): the TGI was above 10 µM.

`c1ccc([P+](CCCCCCCC[P+](c2ccccc2)(c2ccccc2)c2ccccc2)(c2ccccc2)c2ccccc2)cc1` had a TGI above 100 µM.

Take `c1ccc2[nH]c(CNc3ccc(C4C[Se]N=N4)cc3)nc2c1` (stereo not given): the TGI was above 100 µM.

Molecule `O=C1C(C(O)(C(F)(F)F)C(F)(F)F)CCC1C(O)(C(F)(F)F)C(F)(F)F` (stereo not given) showed a TGI of 17.9 µM.

As to `C[C@H]1OC(=O)[C@@H]2N=NN(Cc3ccccc3)[C@H]12`, the TGI is above 100 µM.

In the case of `Cc1ccc2oc(=O)c(-c3ccccc3)nc2c1`, the concentration for total growth inhibition (TGI) is 66.1 µM.

One may read the GI50 as the concentration at which growth is held to half of that of the control. Turning to `COc1ccc(-n2nc(C)c3c(Nc4ccc(NC(=O)Nc5ccc(Cl)c(C(F)(F)F)c5)cc4)ncnc32)cc1`, the GI50 is 1.54 µM and the TGI is 3.35 µM.

For `COc1ccc(NC(C)c2ccncc2)cc1` (stereo not given), the TGI was above 100 µM.

`Nc1ccccc1C(=O)C(Br)C(Br)c1ccc2c(c1)OCO2` (stereo not given) came in with a TGI of 39 µM.

Molecule `O=C1C=CC(=O)C(CNc2ccc(C(=O)OCc3ccccc3)cc2)=C1` had a concentration for total growth inhibition (TGI) of 7.22 µM.

Regarding `C/C(=C\CO)CC/C=C(\C)CNc1ccc([N+](=O)[O-])cc1`, the TGI was 34.6 µM.

The next assay concerns HCT-116 colon. Put plainly: DTP human tumour cell line panel, 48 h.
As to `COc1cc2[nH]c(-c3ccccc3)cc(=O)c2c(OC)c1OC`, the TGI is above 100 µM.

On to `CCOP(=O)(OCC)OC1CC(n2cc(C)c(=O)n(C)c2=O)OC1CO[Si](C)(C)C(C)(C)C` (stereo not given), for which the concentration for total growth inhibition (TGI) was above 100 µM.

Regarding `N#C/C(=C1\SC(N=Nc2ccc(Cl)cc2)C(=O)N1c1ccccc1)c1nc2ccccc2[nH]1` (stereo not given), the TGI was above 100 µM.

As to `COc1ccc(N2C(=O)C3c4[nH]c5ccccc5c4C4CCCCCCCCCC4C3C2=O)cc1` (stereo not given), the TGI is above 10 µM.

The molecule `COc1cc(C(O)c2ccc3c(c2)OCO3)cc(OC)c1OC` (stereo not given) came in with a TGI above 100 µM.

Take `Cc1cc(C)nc(NS(=O)(=O)c2ccc(NC(=O)c3cccc4c(NNc5ccc(S(=O)(=O)N=C(N)N)cc5)c5ccccc5nc34)cc2)n1`: the TGI was above 50 µM.

As for `CCOC(=O)c1sc2ncnc(N)c2c1C`, the TGI was above 100 µM.

Molecule `C=CCN1C(=O)/C(=C/c2ccc(C)cc2)N=C1SC1OC(COC(C)=O)C(OC(C)=O)C(OC(C)=O)C1OC(C)=O` (stereo not given) displayed a TGI above 100 µM.

`N#Cc1c(-c2ccccc2)c2c([nH]c1=O)-c1cc([N+](=O)[O-])ccc1CCC2` registered a TGI above 100 µM.

`O=[N+]([O-])c1cc(Cl)ccc1Sc1ccccc1`: the TGI is above 100 µM.

In the case of `Nc1ccc(-c2nn3c(COc4ccc(Cl)cc4)nnc3s2)cc1`, the GI50 was 34.8 µM and the TGI was above 100 µM.

Regarding `COP(=O)(OC)C(Nc1ccc(Cc2ccc(NC(c3ccco3)P(=O)(OC)OC)cc2)cc1)c1ccco1` (stereo not given), the TGI is above 100 µM.

As for `C(=C\c1ccccc1)/COc1ccccc1C(N1CCOCC1)n1nc2ccccc2n1` (stereo not given), the TGI was 22.8 µM.

On to `O=C(CC(=O)Nc1ccccc1)NNC(c1cc(N=Nc2ccc(Br)cc2)ccc1O)P(O)O` (stereo not given), for which the TGI turned out to be 5.64 µM.

As to `c1ccc([P+](CCCCCCCC[P+](c2ccccc2)(c2ccccc2)c2ccccc2)(c2ccccc2)c2ccccc2)cc1`, the total growth inhibition concentration (TGI) is above 100 µM.

Consider `c1ccc2[nH]c(CNc3ccc(C4C[Se]N=N4)cc3)nc2c1` (stereo not given), for which the TGI was above 100 µM.

`O=C1C(C(O)(C(F)(F)F)C(F)(F)F)CCC1C(O)(C(F)(F)F)C(F)(F)F` (stereo not given): the total growth inhibition concentration (TGI) came to 13.1 µM. That is a double-digit micromolar value.

Take `C[C@H]1OC(=O)[C@@H]2N=NN(Cc3ccccc3)[C@H]12`: the TGI is above 100 µM.

Molecule `Cc1ccc2oc(=O)c(-c3ccccc3)nc2c1` gave a TGI above 100 µM.

On to `COc1ccc(-n2nc(C)c3c(Nc4ccc(NC(=O)Nc5ccc(Cl)c(C(F)(F)F)c5)cc4)ncnc32)cc1`, for which the GI50 was 1.21 µM and the TGI came out at 3.35 µM.

As to `COc1ccc(NC(C)c2ccncc2)cc1` (stereo not given), the concentration for total growth inhibition (TGI) is above 100 µM.

Consider `Nc1ccccc1C(=O)C(Br)C(Br)c1ccc2c(c1)OCO2` (stereo not given), for which the concentration for total growth inhibition (TGI) was determined as 31.1 µM. In other words, the double-digit micromolar range.

The molecule `O=C1C=CC(=O)C(CNc2ccc(C(=O)OCc3ccccc3)cc2)=C1` registered a TGI of 18.2 µM.

For `C/C(=C\CO)CC/C=C(\C)CNc1ccc([N+](=O)[O-])cc1`, the TGI was above 100 µM.

A further assay concerns OVCAR-4 ovarian. The assay can be described thus: DTP human tumour cell line panel, 48 h.
Take `COc1cc2[nH]c(-c3ccccc3)cc(=O)c2c(OC)c1OC`: the total growth inhibition concentration (TGI) is above 100 µM.

Molecule `CCOP(=O)(OCC)OC1CC(n2cc(C)c(=O)n(C)c2=O)OC1CO[Si](C)(C)C(C)(C)C` (stereo not given) displayed a TGI above 100 µM.

For `N#C/C(=C1\SC(N=Nc2ccc(Cl)cc2)C(=O)N1c1ccccc1)c1nc2ccccc2[nH]1` (stereo not given), the TGI amounted to 55.8 µM.

For the molecule `CCOC(=O)c1c(SCCN2CCOCC2)n(-c2ccccc2)c(=S)n(-c2ccccc2)c1=O`, the TGI was above 100 µM.

Regarding `O=C(NN1C(=O)CSC1c1cccc(F)c1)c1ccncc1` (stereo not given), the TGI is above 100 µM.

In turn, `COc1ccc(N2C(=O)C3c4[nH]c5ccccc5c4C4CCCCCCCCCC4C3C2=O)cc1` (stereo not given) registered a concentration for total growth inhibition (TGI) above 10 µM.

Turning to `COc1cc(C(O)c2ccc3c(c2)OCO3)cc(OC)c1OC` (stereo not given), the TGI is above 100 µM.

With `Cc1cc(C)nc(NS(=O)(=O)c2ccc(NC(=O)c3cccc4c(NNc5ccc(S(=O)(=O)N=C(N)N)cc5)c5ccccc5nc34)cc2)n1`, the TGI is above 50 µM.

`CCOC(=O)c1sc2ncnc(N)c2c1C` came in with a TGI above 100 µM.

For `C=CCN1C(=O)/C(=C/c2ccc(C)cc2)N=C1SC1OC(COC(C)=O)C(OC(C)=O)C(OC(C)=O)C1OC(C)=O` (stereo not given), the TGI came to 64.1 µM.

For `N#Cc1c(-c2ccccc2)c2c([nH]c1=O)-c1cc([N+](=O)[O-])ccc1CCC2`, the TGI is above 100 µM.

Regarding `O=[N+]([O-])c1cc(Cl)ccc1Sc1ccccc1`, the TGI is above 100 µM.

`Nc1ccc(-c2nn3c(COc4ccc(Cl)cc4)nnc3s2)cc1` showed a TGI above 100 µM.

Consider `COP(=O)(OC)C(Nc1ccc(Cc2ccc(NC(c3ccco3)P(=O)(OC)OC)cc2)cc1)c1ccco1` (stereo not given), for which the TGI was above 100 µM.

For the molecule `C(=C\c1ccccc1)/COc1ccccc1C(N1CCOCC1)n1nc2ccccc2n1` (stereo not given), the TGI amounted to 57.9 µM.

For the molecule `O=C(CC(=O)Nc1ccccc1)NNC(c1cc(N=Nc2ccc(Br)cc2)ccc1O)P(O)O` (stereo not given), the TGI is above 10 µM.

As to `c1ccc([P+](CCCCCCCC[P+](c2ccccc2)(c2ccccc2)c2ccccc2)(c2ccccc2)c2ccccc2)cc1`, the TGI was above 100 µM.

In the case of `c1ccc2[nH]c(CNc3ccc(C4C[Se]N=N4)cc3)nc2c1` (stereo not given), the total growth inhibition concentration (TGI) was above 100 µM.

In turn, `O=C1C(C(O)(C(F)(F)F)C(F)(F)F)CCC1C(O)(C(F)(F)F)C(F)(F)F` (stereo not given) had a TGI above 100 µM.

In the case of `C[C@H]1OC(=O)[C@@H]2N=NN(Cc3ccccc3)[C@H]12`, the TGI is above 100 µM.

Consider `Cc1ccc2oc(=O)c(-c3ccccc3)nc2c1`, for which the TGI was 75.2 µM.

With `COc1ccc(-n2nc(C)c3c(Nc4ccc(NC(=O)Nc5ccc(Cl)c(C(F)(F)F)c5)cc4)ncnc32)cc1`, the GI50 was 2.85 µM and the TGI is above 100 µM.

The molecule `COc1ccc(NC(C)c2ccncc2)cc1` (stereo not given) returned a TGI above 100 µM.

In turn, `Nc1ccccc1C(=O)C(Br)C(Br)c1ccc2c(c1)OCO2` (stereo not given) displayed a TGI of 59.8 µM.

In the case of `O=C1C=CC(=O)C(CNc2ccc(C(=O)OCc3ccccc3)cc2)=C1`, the TGI was 10.4 µM.

As for `C/C(=C\CO)CC/C=C(\C)CNc1ccc([N+](=O)[O-])cc1`, the TGI was above 100 µM.
